{"source": "patent US11000038B2", "about": "“Pyridone compounds and agricultural and horticultural fungicides containing the same as active ingredients” (priority 2017, dated 2021)", "key": {"[1]": {"tested_on": "rice blast fungi (Magnaporthe grisea)", "test": "whole plant or invertebrate", "assay_type": "in vivo", "conditions": "Pyricularia oryzae, read-out: Test A control value class (rice blast)"}, "[2]": {"tested_on": "gray mold fungi (Botrytis cinerea)", "test": "Test Example B: tomato gray mold, spray treatment of tomato plants", "conditions": "in Solanum lycopersicum, read-out: Test B control value class (tomato gray mold)", "quoted_text": "[Test Example B] Tomato Gray Mold\nTest plants (tomato variety: Oogata Fukuju) were cultivated until three to five first leaves (true leaves) appeared after the sowing of seeds. In the test, the chemical solution was obtained by dissolving the compound of the present invention in a dimethylsulfoxide-methanol mixed solvent (volume ratio: 9/1) and appropriately diluting the resultant solution with well water so that the concentration was 250 ppm. The obtained chemical solution was sprayed to the test plants (2.5 ml/pot). The plants after the drying of the chemical liquid were inoculated with gray mold fungi (Botrytis cinerea) by spraying a conidial suspension of 4 to 8×10^5 conidia/ml. After the inoculation, the plants were allowed to stand, for about 48 hours, in a moist chamber with the room temperature of 20 to 23° C. to promote the onset of disease. The degree of disease development after 2 to 3 days from the inoculation was investigated to evaluate the effect of the chemical solution.\n(§1) With respect to each Test Example described above, the degree of disease development was evaluated as a value with increments of 0.05, regarding the degree of disease development for plants with no onset of disease as 0 and that for plants of untreated group as 3. Further, from the degrees of disease development, a control value was calculated according to the calculation formula below.\n(§2) n=Degree of disease development of each chemical treated group"}, "[3]": {"tested_on": "cabbage Alternaria sooty spot fungi (Alternaia brassicicola)", "test": "Test Example C: cabbage Alternaria sooty spot, spray treatment of cabbage plants", "assay_type": "in vivo", "conditions": "control value=100{1-(n/3)}, read-out: Test C control value class (cabbage Alternaria sooty spot)", "text": "[Test Example C] Cabbage Alternaria Sooty Spot\nTest plants (cabbage variety: Shikidori) were cultivated until the cotyledons extended after the sowing of seeds.\n<Control Value> Control value=100{1−(n/3)}"}, "[4]": {"tested_on": "cucumber anthracnose fungi (Colletotrichum orbiculare)", "test": "Test Example H: cucumber anthracnose, spray treatment of cucumber plants", "conditions": "in Cucumis sativus, read-out: Test H control value class (cucumber anthracnose)", "experimental": "[Test Example H] Cucumber Anthracnose\nTest plants (cucumber variety: Sagami Hanjiro) were cultivated until one first leaf appeared after the sowing of seeds. In the test, the chemical solution was obtained by dissolving the compound of the present invention in a dimethylsulfoxide-methanol mixed solvent (volume ratio: 9/1) and appropriately diluting the resultant solution with well water so that the concentration was 250 ppm. The obtained chemical solution was sprayed to the test plants (2.5 ml/pot). The plants after the drying of the chemical liquid were inoculated with cucumber anthracnose fungi (Colletotrichum orbiculare) by spraying a conidial suspension of 2 to 4×10^5 conidia/ml. After the inoculation, the plants were allowed to stand, for about 24 hours, in a moist chamber with the room temperature of 20 to 23° C. to promote the onset of disease. The degree of disease development after 6 to 10 days from the inoculation was investigated to evaluate the effect of the chemical solution.\nas §1, §2"}, "[5]": {"tested_on": "tomato late blight fungi (Phytophthora infestans)", "test": "whole plant or invertebrate", "assay_type": "in vivo", "conditions": "read-out: Test F control value class (tomato late blight)"}, "[6]": {"tested_on": "wheat brown rust fungi (Puccinia recondita)", "test": "Test Example E: wheat brown rust, spray treatment of wheat plants", "assay_type": "in vivo", "conditions": "control value=100{1-(n/3)}, read-out: Test E control value class (wheat brown rust)"}, "[7]": {"tested_on": "grape downy mildew fungus (Plasmopara viticola)", "test": "Test Example G: grape downy mildew, spray treatment of grape plants", "conditions": "read-out: Test G control value class (grape downy mildew)", "experimental": "Test plants (grape variety: Neomuscat) were cultivated until three to four first leaves appeared after the sowing of seeds. In the test, the chemical solution was obtained by dissolving the compound of the present invention in a dimethylsulfoxide-methanol mixed solvent (volume ratio: 9/1) and appropriately diluting the resultant solution with well water so that the concentration was 250 ppm. The obtained chemical solution was sprayed to the test plants (2.5 ml/pot). The plants after the drying of the chemical liquid were inoculated with grape downy mildew fungus (Plasmopara viticola) by spraying a zoosporangial suspension of 1 to 2×10^4 zoosporangia/ml. After the inoculation, the plants were allowed to stand, for about 24 hours, in a moist chamber with the room temperature of 20° C. to promote the onset of disease. The degree of disease development after 7 to 10 days from the inoculation was investigated to evaluate the effect of the chemical solution.\nas §1, §2"}}}
{"compound": "O=c1c(Br)cn(-c2ccccc2Cl)c(-c2c(F)cc(F)cc2F)c1Br", "note": "[Compound 1, 3,5-dibromo-1-(2-chlorophenyl)-2-(2,4,6-trifluorophenyl)pyridin-4(1H)-one]", "values": [{"measurement": "pest or weed control at 250 µg/mL", "setting": "[1]", "result": "> 50", "unit": "%"}, {"measurement": "pest or weed control at 250 µg/mL", "setting": "[2]", "result": "> 50", "unit": "%"}, {"measurement": "pest or weed control at 250 µg/mL", "setting": "[3]", "result": "> 50", "unit": "%"}, {"measurement": "pest or weed control at 250 ppm", "setting": "[4]", "result": "> 50", "unit": "%"}, {"measurement": "pest or weed control at 250 µg/mL", "setting": "[5]", "result": "< 50", "unit": "%"}, {"measurement": "pest or weed control at 250 µg/mL", "setting": "[6]", "result": "> 50", "unit": "%"}, {"measurement": "pest or weed control at 250 ppm", "setting": "[7]", "result": "> 50", "unit": "%"}]}
{"compound": "O=c1c(Br)cn(-c2ccccc2Cl)c(-c2c(F)cc(F)cc2F)c1Cl", "note": "[Compound 2, 5-bromo-3-chloro-1-(2-chlorophenyl)-2-(2,4,6-trifluorophenyl)pyridin-4(1H)-one]", "values": [{"measurement": "pest or weed control at 250 µg/mL", "setting": "[1]", "result": "> 50", "unit": "%"}, {"measurement": "pest or weed control at 250 µg/mL", "setting": "[2]", "result": "> 50", "unit": "%"}, {"measurement": "pest or weed control at 250 µg/mL", "setting": "[3]", "result": "> 50", "unit": "%"}, {"measurement": "pest or weed control at 250 ppm", "setting": "[4]", "result": "> 50", "unit": "%"}, {"measurement": "pest or weed control at 250 µg/mL", "setting": "[5]", "result": "< 50", "unit": "%"}, {"measurement": "pest or weed control at 250 µg/mL", "setting": "[6]", "result": "> 50", "unit": "%"}, {"measurement": "pest or weed control at 250 ppm", "setting": "[7]", "result": "> 50", "unit": "%"}]}
{"compound": "O=c1c(Cl)cn(-c2ccccc2Cl)c(-c2c(F)cc(F)cc2F)c1Cl", "note": "[Compound 4, 3,5-dichloro-1-(2-chlorophenyl)-2-(2,4,6-trifluorophenyl)pyridin-4(1H)-one]", "values": [{"measurement": "pest or weed control at 250 µg/mL", "setting": "[1]", "result": "> 50", "unit": "%"}, {"measurement": "pest or weed control at 250 µg/mL", "setting": "[2]", "result": "> 50", "unit": "%"}, {"measurement": "pest or weed control at 250 µg/mL", "setting": "[3]", "result": "> 50", "unit": "%"}, {"measurement": "pest or weed control at 250 ppm", "setting": "[4]", "result": "> 50", "unit": "%"}, {"measurement": "pest or weed control at 250 µg/mL", "setting": "[5]", "result": "< 50", "unit": "%"}, {"measurement": "pest or weed control at 250 µg/mL", "setting": "[6]", "result": "> 50", "unit": "%"}, {"measurement": "pest or weed control at 250 ppm", "setting": "[7]", "result": "> 50", "unit": "%"}]}
{"compound": "COc1cc(F)c(-c2c(Cl)c(=O)c(Cl)cn2-c2ccccc2Cl)c(F)c1", "note": "[Compound 5, 3,5-dichloro-1-(2-chlorophenyl)-2-(2,6-difluoro-4-methoxyphenyl)pyridin-4(1H)-one]", "values": [{"measurement": "pest or weed control at 250 µg/mL", "setting": "[1]", "result": "> 50", "unit": "%"}, {"measurement": "pest or weed control at 250 µg/mL", "setting": "[2]", "result": "> 50", "unit": "%"}, {"measurement": "pest or weed control at 250 µg/mL", "setting": "[3]", "result": "> 50", "unit": "%"}, {"measurement": "pest or weed control at 250 ppm", "setting": "[4]", "result": "> 50", "unit": "%"}, {"measurement": "pest or weed control at 250 µg/mL", "setting": "[5]", "result": "< 50", "unit": "%"}, {"measurement": "pest or weed control at 250 µg/mL", "setting": "[6]", "result": "> 50", "unit": "%"}, {"measurement": "pest or weed control at 250 ppm", "setting": "[7]", "result": "> 50", "unit": "%"}]}
{"compound": "O=c1c(Br)cn(-c2cccnc2Cl)c(-c2c(F)cc(F)cc2F)c1Br", "note": "[Compound 38, 3,5-dibromo-2′-chloro-2-(2,4,6-trifluorophenyl)-4H-[1,3′-bipyridin]-4-one]", "values": [{"measurement": "pest or weed control at 250 µg/mL", "setting": "[1]", "result": "> 50", "unit": "%"}, {"measurement": "pest or weed control at 250 µg/mL", "setting": "[2]", "result": "> 50", "unit": "%"}, {"measurement": "pest or weed control at 250 µg/mL", "setting": "[3]", "result": "> 50", "unit": "%"}, {"measurement": "pest or weed control at 250 ppm", "setting": "[4]", "result": "> 50", "unit": "%"}, {"measurement": "pest or weed control at 250 µg/mL", "setting": "[5]", "result": "> 50", "unit": "%"}, {"measurement": "pest or weed control at 250 µg/mL", "setting": "[6]", "result": "> 50", "unit": "%"}, {"measurement": "pest or weed control at 250 ppm", "setting": "[7]", "result": "> 50", "unit": "%"}]}
{"compound": "O=c1c(Cl)cn(Cc2ccccc2)c(-c2c(F)cc(F)cc2F)c1Br", "note": "[Compound 49, 1-benzyl-3-bromo-5-chloro-2-(2,4,6-trifluorophenyl)pyridin-4(1H)-one]", "values": [{"measurement": "pest or weed control at 250 µg/mL", "setting": "[1]", "result": "> 50", "unit": "%"}, {"measurement": "pest or weed control at 250 µg/mL", "setting": "[2]", "result": "> 50", "unit": "%"}, {"measurement": "pest or weed control at 250 µg/mL", "setting": "[3]", "result": "> 50", "unit": "%"}, {"measurement": "pest or weed control at 250 ppm", "setting": "[4]", "result": "> 50", "unit": "%"}, {"measurement": "pest or weed control at 250 µg/mL", "setting": "[5]", "result": "> 50", "unit": "%"}, {"measurement": "pest or weed control at 250 µg/mL", "setting": "[6]", "result": "> 50", "unit": "%"}, {"measurement": "pest or weed control at 250 ppm", "setting": "[7]", "result": "> 50", "unit": "%"}]}
{"compound": "Cc1cc(-n2cc(Cl)c(=O)c(Br)c2-c2c(F)cc(F)cc2F)no1", "note": "[Compound 141, 3-bromo-5-chloro-1-(5-methylisoxazol-3-yl)-2-(2,4,6-trifluorophenyl)pyridin-4(1H)-one]", "values": [{"measurement": "pest or weed control at 250 µg/mL", "setting": "[1]", "result": "< 50", "unit": "%"}, {"measurement": "pest or weed control at 250 µg/mL", "setting": "[2]", "result": "> 50", "unit": "%"}, {"measurement": "pest or weed control at 250 µg/mL", "setting": "[3]", "result": "> 50", "unit": "%"}, {"measurement": "pest or weed control at 250 ppm", "setting": "[4]", "result": "< 50", "unit": "%"}, {"measurement": "pest or weed control at 250 µg/mL", "setting": "[5]", "result": "< 50", "unit": "%"}, {"measurement": "pest or weed control at 250 µg/mL", "setting": "[6]", "result": "> 50", "unit": "%"}, {"measurement": "pest or weed control at 250 ppm", "setting": "[7]", "result": "< 50", "unit": "%"}]}
{"compound": "Cc1onc(-n2cc(Cl)c(=O)c(Br)c2-c2c(F)cc(F)cc2F)c1Br", "note": "[Compound 142, 3-bromo-1-(4-bromo-5-methylisoxazol-3-yl)-5-chloro-2-(2,4,6-trifluorophenyl)pyridin-4(1H)-one]", "values": [{"measurement": "pest or weed control at 250 µg/mL", "setting": "[1]", "result": "> 50", "unit": "%"}, {"measurement": "pest or weed control at 250 µg/mL", "setting": "[2]", "result": "> 50", "unit": "%"}, {"measurement": "pest or weed control at 250 µg/mL", "setting": "[3]", "result": "> 50", "unit": "%"}, {"measurement": "pest or weed control at 250 ppm", "setting": "[4]", "result": "> 50", "unit": "%"}, {"measurement": "pest or weed control at 250 µg/mL", "setting": "[5]", "result": "> 50", "unit": "%"}, {"measurement": "pest or weed control at 250 µg/mL", "setting": "[6]", "result": "> 50", "unit": "%"}, {"measurement": "pest or weed control at 250 ppm", "setting": "[7]", "result": "> 50", "unit": "%"}]}
{"compound": "CCC(C)Cn1cc(Cl)c(=O)c(Cl)c1-c1c(F)cc(F)cc1F", "note": "(centres unmarked) [Compound 162, 3,5-dichloro-1-(2-methylbutyl)-2-(2,4,6-trifluorophenyl)pyridin-4(1H)-one]", "values": [{"measurement": "pest or weed control at 250 µg/mL", "setting": "[1]", "result": "> 50", "unit": "%"}, {"measurement": "pest or weed control at 250 µg/mL", "setting": "[2]", "result": "> 50", "unit": "%"}, {"measurement": "pest or weed control at 250 µg/mL", "setting": "[3]", "result": "> 50", "unit": "%"}, {"measurement": "pest or weed control at 250 ppm", "setting": "[4]", "result": "> 50", "unit": "%"}, {"measurement": "pest or weed control at 250 µg/mL", "setting": "[5]", "result": "< 50", "unit": "%"}, {"measurement": "pest or weed control at 250 µg/mL", "setting": "[6]", "result": "> 50", "unit": "%"}, {"measurement": "pest or weed control at 250 ppm", "setting": "[7]", "result": "> 50", "unit": "%"}]}
{"compound": "Cc1ccccc1-n1cc(C)c(=O)c(C)c1-c1c(F)cc(F)cc1F", "note": "[Compound 174, 3,5-dimethyl-1-(o-toluyl)-2-(2,4,6-trifluorophenyl)pyridin-4(1H)-one]", "values": [{"measurement": "pest or weed control at 250 µg/mL", "setting": "[1]", "result": "> 50", "unit": "%"}, {"measurement": "pest or weed control at 250 µg/mL", "setting": "[2]", "result": "> 50", "unit": "%"}, {"measurement": "pest or weed control at 250 µg/mL", "setting": "[3]", "result": "> 50", "unit": "%"}, {"measurement": "pest or weed control at 250 ppm", "setting": "[4]", "result": "> 50", "unit": "%"}, {"measurement": "pest or weed control at 250 µg/mL", "setting": "[5]", "result": "< 50", "unit": "%"}, {"measurement": "pest or weed control at 250 µg/mL", "setting": "[6]", "result": "> 50", "unit": "%"}, {"measurement": "pest or weed control at 250 ppm", "setting": "[7]", "result": "> 50", "unit": "%"}]}
{"compound": "COc1cc(F)c(-c2c(C)c(=O)c(C)cn2-c2ccccc2C)c(F)c1", "note": "[Compound 175, 2-(2,6-difluoro-4-methoxyphenyl)-3,5-dimethyl-1-(o-toluyl)pyridin-4(1H)-one]", "values": [{"measurement": "pest or weed control at 250 µg/mL", "setting": "[1]", "result": "> 50", "unit": "%"}, {"measurement": "pest or weed control at 250 µg/mL", "setting": "[2]", "result": "> 50", "unit": "%"}, {"measurement": "pest or weed control at 250 µg/mL", "setting": "[3]", "result": "> 50", "unit": "%"}, {"measurement": "pest or weed control at 250 ppm", "setting": "[4]", "result": "> 50", "unit": "%"}, {"measurement": "pest or weed control at 250 µg/mL", "setting": "[5]", "result": "< 50", "unit": "%"}, {"measurement": "pest or weed control at 250 µg/mL", "setting": "[6]", "result": "> 50", "unit": "%"}, {"measurement": "pest or weed control at 250 ppm", "setting": "[7]", "result": "> 50", "unit": "%"}]}
